Laboratory results reported in US7655392B2, “Quenching methods for red blood cell inactivation process” (priority 2004, dated 2010).
Several values for one entry are separate records, joined by “and”; a condition that tells them apart may be missing. Identical values can stand only once. Like-named read-outs stand apart in the source and are kept apart here.

Assays:
[1] = tested on: red blood cells; type: cell-based
Method: In another assay, the rabbit polyclonal sera may be reacted with treated red blood cells. After washing off unbound antibody, a FITC labeled goat anti-rabbit Fab′2 fragment (anti H+L chains, Caltag) is added. The binding of FITC label to the red blood cells correlates with the amount of acridine bound to the red blood cell surface, and is assessed by FACScan™ analysis (Becton, Dickinson and Co., NJ). The relative modification of the red blood cells is determined from the FACScan™ mean fluorescence value.
A 20 mL sample of leukoreduced whole blood (Blood Source, Sacramento, Calif.) was centrifuged at 4,100×g for 5 minutes at room temperature in each of four 50 mL centrifuge tubes. The supernatant was removed from each tube to provide red cell concentrate (RCC). […] For each washed RCC, cells were resuspended in 5 mL of the solution used for washing. This is now referred to as the RBC test sample. […] These samples were incubated for 20 hours at room temperature. After incubation, the RBC were washed in BBS (Blood Bank Saline, 0.9% saline, unbuffered, Fisher Scientific) and were diluted to a final hematocrit of 4%. A 25 μL aliquot of each was mixed with 15 μL of rabbit polyclonal anti-acridine sera diluted 1:100 in BBS and the mixture was incubated at 37° C. for 30 minutes. The cells were subsequently washed with 1.5 mL BBS. After washing was complete, the cells were mixed with 50 μL of FITC labeled goat anti-rabbit Fab′2 fragment (1:64 dilution in BBS) and incubated at 37° C. for 30 minutes. […] Note that the quenching improves as glutathione is neutralized with increasing amounts of sodium hydroxide.
The FACScan analysis of the binding of rabbit anti-acridine sera to treated red cells was used to assess a variety of quenching conditions. […] The tables represent data from two different experiments, each with samples treated under standard conditions or with 20 mM neutralized glutathione. […] The data within an experiment provides the relative efficacy of the various treatments. Because the assay may depend on the lot of red blood cells used, the absolute values of mean fluorescence may vary from one study to the next, such that relative values should only be compared within a given experiment. […] Neutralized glutathione at 20 mM results in close to background levels.
An untreated control sample as well as a standard sample (co-addition of 2 mM acidic glutathione with 0.2 mM PIC-1) were also assessed.
Full units of red cell concentrates (Interstate Blood Bank, Inc., Memphis, Tenn.) were leukoreduced. A volume of 200 mL of this RCC (80% hematocrit) was mixed with 94 mL of Erythrosol or 100 mL of Adsol (Baxter Healthcare Corp., Deerfield, Ill.) as control (unit 1). A volume of 20 mL 8% dextrose was used to dissolve PIC-1 (mg) and acid glutathione (mg) and added to one unit to provide 0.2 mM PIC-1 and 2 mM glutathione (unit 2). […] For the glutathione, 1.2 mL of 10 N NaOH was added (2 equivalents). The PIC-1 was mixed with the unit, followed 1 minute later (unit 3) or 5 minutes later (unit 4) by glutathione. For unit 5, neutralized glutathione was mixed first, followed 10 minutes later by the PIC-1. […] All units were mixed by grasping the ends of the blood bag and mixing in a FIG. 8 motion 30 times. These were then incubated at room temperature for 20 hours total. A compound adsorption device (CAD), comprising a polymeric resin contained within a mesh pouch, was used for all but the control sample. This device is intended to remove residual PIC-1, PIC-1 breakdown products, and glutathione from the samples. Samples were incubated for 8 hours, then transferred to a second blood bag containing the CAD and incubated for an additional 12 hours. Following the room temperature incubation, samples were transferred to a refrigerator (4° C.) and stored up to 43 days.

[2] = Co-formulation of PIC-1 with neutralized glutathione in one solution (observation); type: physicochemical; settings: PIC-1 and 20 mM glutathione neutralized with NaOH in one solution (Table 2A samples 4-6)
Text: The methods of the invention result in adequate inactivation of possible pathogen contaminants in red blood cell compositions with improved quenching as compared to known methods. […] In some embodiments, the quencher is acidic and is neutralized with 1 to 2 equivalents of a suitable base, such as sodium hydroxide. In a preferred embodiment, the quencher is glutathione neutralized with 2 equivalents of base. In a preferred embodiment, the pathogen inactivating compound comprises an acridine group linked to a mustard group via an ester bond. […] The quencher may be added to the red blood cell composition before, after, or simultaneously with the pathogen inactivating compound. In some embodiments, the quencher is added in the time range of about 30 minutes prior to pathogen inactivating compound up to about 10 minutes following pathogen inactivating compound. In some embodiments, the quencher and pathogen inactivating compound may be added essentially simultaneously but separately. […] Because of the high concentration of glutathione required for adequate quenching, the pathogen inactivating compound precipitates when these are in the same solution in high concentrations. Once added to the red blood cell composition, they are sufficiently diluted and buffered as to both be completely soluble.

## O=C(CCNc1c2ccccc2nc2ccccc12)OCCN(CCCl)CCCl [PIC-1]
[1]; RBC PBS pH 8 3x wash, 0.2 mM PIC-1, 20 mM GSH+1.5 eq NaOH
  Mean fluorescence intensity: 5.1
[1]; RBC PBS pH 8 3x wash, 0.2 mM PIC-1, 20 mM GSH+2 eq NaOH
  Mean fluorescence intensity: 5.1
[1]; RBC in Erythrosol pH 7.3 no wash, 0.2 mM PIC-1, 2 mM GSH
  Mean fluorescence intensity: 108
[1]; RBC in Erythrosol pH 7.3 no wash, 0.2 mM PIC-1, 20 mM GSH+0.9 eq NaOH
  Mean fluorescence intensity: 17.0
[1]; RBC in Erythrosol pH 7.3 no wash, 0.2 mM PIC-1, 20 mM GSH+1.5 eq NaOH
  Mean fluorescence intensity: 8.1
[1]; RBC in Erythrosol pH 7.3 no wash, 0.2 mM PIC-1, 20 mM GSH+2 eq NaOH
  Mean fluorescence intensity: 6.0
[1]; Table 9A: 0.2 mM PIC-1+2 mM GSH, 0 eq NaOH, no delay (standard)
  mean fluorescence: 114
[1]; Table 9A: 5 mM Cys+2 eq NaOH, then 0.2 mM PIC-1 after 5 min
  mean fluorescence: 8
[1]; Table 9A: 5 mM Cys+2 eq NaOH, then 0.2 mM PIC-1 after 10 min
  mean fluorescence: 10.8
[1]; Table 9A: 5 mM Cys+2 eq NaOH, then 0.2 mM PIC-1 after 20 min
  mean fluorescence: 8
[1]; Table 9A: 10 mM Cys+2 eq NaOH, then 0.2 mM PIC-1 after 10 min
  mean fluorescence: 2.9
[1]; Table 9A: 15 mM Cys+2 eq NaOH, then 0.2 mM PIC-1 after 10 min
  mean fluorescence: 1.9
[1]; Table 9A: 20 mM Cys+2 eq NaOH, then 0.2 mM PIC-1 after 5 min
  mean fluorescence: 1.9
[1]; Table 9A: 20 mM Cys+2 eq NaOH, then 0.2 mM PIC-1 after 10 min
  mean fluorescence: 1.9
[1]; Table 9A: 20 mM Cys+2 eq NaOH, then 0.2 mM PIC-1 after 20 min
  mean fluorescence: 2
[1]; Table 9A: 20 mM GSH+2 eq NaOH, then 0.2 mM PIC-1 after 10 min
  mean fluorescence: 2.6
[1]; Table 9A: […] Cys+2 eq NaOH, then 0.2 mM PIC-1 after 10 min
  mean fluorescence: 37
[1]; Table 9B: 0.2 mM PIC-1+2 mM GSH, 0 eq NaOH, no delay (standard)
  mean fluorescence: 160 and 151 and 182
[1]; Table 9B: 5 mM Cys+1 eq NaOH, then 0.2 mM PIC-1 after 10 min
  mean fluorescence: 19.28
[1]; Table 9B: 5 mM Cys+2 eq NaOH, then 0.2 mM PIC-1 after 10 min
  mean fluorescence: 14.1
[1]; Table 9B: 5 mM Cys, 0 eq NaOH, then 0.2 mM PIC-1 after 10 min
  mean fluorescence: 49
[1]; Table 9B: 10 mM Cys+1 eq NaOH, then 0.2 mM PIC-1 after 10 min
  mean fluorescence: 5.1
[1]; Table 9B: 10 mM Cys+2 eq NaOH, then 0.2 mM PIC-1 after 10 min
  mean fluorescence: 3.6
[1]; Table 9B: 10 mM Cys, 0 eq NaOH, then 0.2 mM PIC-1 after 10 min
  mean fluorescence: 11.6
[1]; Table 9B: 20 mM Cys+1 eq NaOH, then 0.2 mM PIC-1 after 10 min
  mean fluorescence: 2.5
[1]; Table 9B: 20 mM Cys, 0 eq NaOH, then 0.2 mM PIC-1 after 10 min
  mean fluorescence: 4.3
[1]; Table 9B: 20 mM GSH+2 eq NaOH, then 0.2 mM PIC-1 after 10 min
  mean fluorescence: 6.06 and 5.62 and 5.6
[1]; Table 9B: […] Cys+1 eq NaOH, then 0.2 mM PIC-1 after 10 min
  mean fluorescence: 49.5
[1]; Table 9B: […] Cys+2 eq NaOH, then 0.2 mM PIC-1 after 10 min
  mean fluorescence: 49
[1]; Table 9B: […] Cys, 0 eq NaOH, then 0.2 mM PIC-1 after 10 min
  mean fluorescence: 44
[1]; Table 11C: 2 mM GSH, 1 eq. base, then 0.2 mM PIC-1
  mean fluorescence: 208.05
[1]; Table 11C: 2 mM GSH, 2 eq. base, then 0.2 mM PIC-1
  mean fluorescence: 160.37
[1]; Table 11C: 2 mM GSH, no added base, then 0.2 mM PIC-1
  mean fluorescence: 179.17
[1]; Table 11C: 5 mM GSH, 1 eq. base, then 0.2 mM PIC-1
  mean fluorescence: 87.6
[1]; Table 11C: 5 mM GSH, 2 eq. base, then 0.2 mM PIC-1
  mean fluorescence: 67.56
[1]; Table 11C: 5 mM GSH, no added base, then 0.2 mM PIC-1
  mean fluorescence: 95.57
[1]; Table 11C: 10 mM GSH, 1 eq. base, then 0.2 mM PIC-1
  mean fluorescence: 47.18
[1]; Table 11C: 10 mM GSH, 2 eq. base, then 0.2 mM PIC-1
  mean fluorescence: 27.45
[1]; Table 11C: 10 mM GSH, no added base, then 0.2 mM PIC-1
  mean fluorescence: 88.21
[1]; Table 11C: 20 mM GSH, 1 eq. base, then 0.2 mM PIC-1
  mean fluorescence: 29.97
[1]; Table 11C: 20 mM GSH, 2 eq. base, then 0.2 mM PIC-1
  mean fluorescence: 13.37
[1]; Table 11C: 20 mM GSH, no added base, then 0.2 mM PIC-1
  mean fluorescence: 187.74
[1]; Table 11C: co-addition std., 2 mM acidic glutathione with 0.2 mM PIC-1
  mean fluorescence: 144.33
[2]
  solubility when formulated together with neutralized glutathione: precipitated out of solution
